Data: article PMC5500904 (Clinical cancer research : an official journal of the …, 2016)
Where two headings read alike, the source gives them in different places.

What was measured:
[1] = test system: patients with advanced solid tumors; conditions: in vivo
[2] = in vivo
clinical = conditions: human, in vivo; for Cmax: 150 mg; for AUC(0-t): AUC0–last
metastatic CRC = conditions: combined with everolimus; cited from earlier work
IGF1R = IGF1R (Homo sapiens, UniProt P08069); test: Phosphorylation of IGF1R in PBMCs; type: in vivo
IGF1R, sequence (P08069 31-1367): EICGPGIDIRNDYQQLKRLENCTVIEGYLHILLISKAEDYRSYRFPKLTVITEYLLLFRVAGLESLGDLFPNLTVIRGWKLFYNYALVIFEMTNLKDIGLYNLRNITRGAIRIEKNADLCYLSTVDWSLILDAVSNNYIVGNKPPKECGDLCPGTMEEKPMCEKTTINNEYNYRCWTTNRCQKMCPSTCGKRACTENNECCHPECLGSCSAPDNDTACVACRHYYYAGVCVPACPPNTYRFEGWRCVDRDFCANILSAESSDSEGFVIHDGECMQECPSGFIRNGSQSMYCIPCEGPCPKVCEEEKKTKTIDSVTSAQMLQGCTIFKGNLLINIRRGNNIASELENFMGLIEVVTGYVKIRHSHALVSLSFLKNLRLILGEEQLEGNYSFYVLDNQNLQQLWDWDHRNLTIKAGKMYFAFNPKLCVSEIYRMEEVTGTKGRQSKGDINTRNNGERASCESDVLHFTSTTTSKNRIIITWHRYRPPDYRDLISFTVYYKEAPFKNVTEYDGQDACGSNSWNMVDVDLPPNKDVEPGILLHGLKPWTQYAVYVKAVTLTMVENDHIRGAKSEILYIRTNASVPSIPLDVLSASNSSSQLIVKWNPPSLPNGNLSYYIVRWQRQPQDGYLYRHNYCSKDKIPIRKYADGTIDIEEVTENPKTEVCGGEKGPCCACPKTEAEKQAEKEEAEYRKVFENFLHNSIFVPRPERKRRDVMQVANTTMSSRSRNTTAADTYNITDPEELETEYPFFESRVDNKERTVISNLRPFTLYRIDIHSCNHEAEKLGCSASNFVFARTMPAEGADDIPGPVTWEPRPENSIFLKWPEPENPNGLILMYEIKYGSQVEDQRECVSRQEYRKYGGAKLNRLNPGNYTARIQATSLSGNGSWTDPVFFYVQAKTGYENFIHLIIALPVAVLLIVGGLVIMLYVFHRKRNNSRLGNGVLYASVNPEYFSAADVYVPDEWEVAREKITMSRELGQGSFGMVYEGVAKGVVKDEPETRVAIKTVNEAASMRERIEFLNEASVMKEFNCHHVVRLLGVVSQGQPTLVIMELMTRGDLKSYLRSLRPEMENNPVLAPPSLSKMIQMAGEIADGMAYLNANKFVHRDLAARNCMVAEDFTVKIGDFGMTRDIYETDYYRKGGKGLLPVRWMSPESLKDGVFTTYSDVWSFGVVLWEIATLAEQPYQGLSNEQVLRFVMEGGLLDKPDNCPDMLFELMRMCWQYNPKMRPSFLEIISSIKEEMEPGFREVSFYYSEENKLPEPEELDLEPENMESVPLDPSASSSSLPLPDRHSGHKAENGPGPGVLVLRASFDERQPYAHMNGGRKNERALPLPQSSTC

adrenocortical carcinoma = conditions: cited from earlier work
[3] = cited from earlier work
[4] = test system: patients with solid tumors; conditions: cited from earlier work; for antitumor activity as monotherapy: single agent, solid tumors
advanced NSCLC = conditions: cited from earlier work

**Q.** For `C#Cc1cccc(Nc2ncnc3cc(OCCOC)c(OCCOC)cc23)c1` [erlotinib, Erlotinib, reference compound], which “Erlotinib-related AE: diarrhea” value ([1]; human) is on record?
**A.** 26%

**Q.** And the “Erlotinib-related AE: drug eruption” value ([1]; human)?
**A.** 74%

**Q.** What about the “Erlotinib-related AE: dry skin” value ([1]; human) of the same compound?
**A.** 26%

**Q.** What about the “Erlotinib-related AE: pruritus” value ([1]; human) of the same compound?
**A.** 26%

**Q.** What about the “Erlotinib-related AEs” value ([1]; human) of the same compound?
**A.** 84 % of patients

**Q.** What about the “patients discontinuing for an event related only to the named treatment” value ([1]; human) of the same compound?
**A.** 3 patients

**Q.** And the Tmax ([2]; human)?
**A.** 4.1 (1.9–8.4) h

**Q.** And the Cmax (clinical)?
**A.** 1280 ng/mL

**Q.** And the AUC(0-t) (clinical)?
**A.** 21100 ng·h/mL

**Q.** And the Tmax (clinical)?
**A.** 4.1 h

**Q.** Which clinical activity (metastatic CRC) does the source give for `C[C@]1(O)C[C@@H](c2nc(-c3ccc4ccc(-c5ccccc5)nc4c3)c3c(N)nccn32)C1` [linsitinib, Linsitinib] here?
**A.** no evidence of clinical activity

**Q.** What about the “IGF1R phosphorylation in PBMCs” value (IGF1R; 2 to 24 hours after the first dose, 7 cases, S1–S3) of the same compound?
**A.** substantially inhibited

**Q.** What about the “IGF1R phosphorylation in PBMCs” value (IGF1R; later time points, intermittent S1 schedule) of the same compound?
**A.** fluctuating receptor inhibition

**Q.** What about the “IGF1R phosphorylation in PBMCs” value (IGF1R; later time points, ≥300 mg linsitinib daily in S2 and S3) of the same compound?
**A.** persisting receptor inhibition

**Q.** What about the “Linsitinib-related hyperglycemia at grade 2” value ([1]; human) of the same compound?
**A.** 2

**Q.** And the “Linsitinib-related hyperglycemia at grade 3” value ([1]; human)?
**A.** 3 cases

**Q.** What about the “Treatment-related SAEs” value ([1]; human) of the same compound?
**A.** 10 of 40 (25%) patients (%)

**Q.** And the “linsitinib-related AE: fatigue” value ([1]; human)?
**A.** 12%

**Q.** And the “linsitinib-related AE: nausea” value ([1]; human)?
**A.** 11%

**Q.** What about the “linsitinib-related AE: prolonged QTc interval” value ([1]; human) of the same compound?
**A.** 8%

**Q.** What about the “linsitinib-related AE: vomiting” value ([1]; human) of the same compound?
**A.** 8%

**Q.** And the “patients discontinuing for an event related only to the named treatment” value ([1]; human)?
**A.** 1 patients

**Q.** What about the thrombocytopenia and neutropenia [1] of the same compound?
**A.** not observed

**Q.** And the “Cmax and AUC from time zero to infinity versus dose” value [2]?
**A.** increased in a dose-proportional manner

**Q.** And the “drug–drug interaction (pharmacokinetic)” value [2]?
**A.** no significant drug–drug interaction effect

**Q.** And the “overall survival versus placebo arm” value (adrenocortical carcinoma)?
**A.** no difference in overall survival

**Q.** What about the “patients with durable PR” value (adrenocortical carcinoma; linsitinib arm) of the same compound?
**A.** 3 of 90

**Q.** What about the “plasma level associated with preclinical activity” value [3] of the same compound?
**A.** ~ 1 μmol/L

**Q.** What about the concentration at 24 h (clinical) of the same compound?
**A.** ≤ 400 ng/mL

**Q.** And the Cmax (clinical)?
**A.** 2580 ng/mL

**Q.** What about the AUC(0-t) (clinical) of the same compound?
**A.** 17900 ng·h/mL

**Q.** What about the Tmax (clinical) of the same compound?
**A.** 3 h

**Q.** And the “QTc prolongation versus peak concentrations of linsitinib” value ([4]; another study, 600 mg dose, ref unpublished data)?
**A.** associated with peak concentrations

**Q.** What about the half-life [4] of the same compound?
**A.** 5 h

**Q.** What about the “monotherapy MTD” value ([4]; continuous once daily dosing) of the same compound?
**A.** 400 mg

**Q.** What about the “monotherapy MTD” value ([4]; intermittent dosing) of the same compound?
**A.** 600 mg

**Q.** And the “antitumor activity as monotherapy” value [4]?
**A.** partial responses (PR) in melanoma and adrenocortical carcinoma

**Q.** What about the “antitumor activity as monotherapy” value ([4]; listed as Linsitinib) of the same compound?
**A.** induced partial responses in adrenocortical carcinoma and melanoma

**Q.** And the “monotherapy RP2D” value ([4]; twice daily, continuous)?
**A.** 150 mg

**Q.** Which results are given for “R1507: IGF1R antibody, evaluated with erlotinib in NSCLC”?
**A.** 12-week progression-free survival rate (advanced NSCLC; R1507 with erlotinib, patients with KRAS-mutant tumors): 36%; progression-free or overall survival versus erlotinib alone (advanced NSCLC; R1507 with erlotinib, unselected patients): no progression-free survival or overall survival advantage; tolerability (advanced NSCLC; in vivo): tolerable
